This is an account of results in PubChem BioAssay (NCI).

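96-well plates; 48 h exposure; 5 concentrations. Endpoints by linear interpolation between flanking doses. Not reached: highest tested concentration assigned. TGI: total growth inhibition.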

Test systems include COLO 205 colon; KM12 colon; CAKI-1 renal; NCI-H460 lung; NCI-H23 lung; HOP-62 NSCLC; LOX IMVI melanoma; SR leukemia; PC-3 prostate; T-47D breast.
Holding throughout (assay): growth of human tumour cells (NCI), 48 h

For `O=C(CCN1CCCCC1CO)Nc1ccc2c(c1)C(=O)c1ccc(NC(=O)CCN3CCCCC3CO)cc1C2=O` (stereo not given), the TGI in the assay on COLO 205 colon was found to be 21.7 µM; in the assay with KM12 colon it was 17.1 µM; in the assay with CAKI-1 renal it was 57.6 µM; in the assay with NCI-H460 lung, 24.2 µM; with NCI-H23 lung it was 38.1 µM; in the assay on HOP-62 NSCLC it was 64.2 µM. Moreover, the results for the TGI in the assay with LOX IMVI melanoma and in the assay with SR leukemia were 20.8 µM and 68.9 µM, respectively.

In the case of `COC1(OC)/C(=C(\N)C=O)NC(C)(C)N1O`, the TGI with PC-3 prostate, with COLO 205 colon, in the assay with KM12 colon, with CAKI-1 renal, in the assay with NCI-H460 lung and in the assay on NCI-H23 lung was > 100 µM each time. The TGI with HOP-62 NSCLC, in the assay with LOX IMVI melanoma and with SR leukemia was > 100 µM in each case.

Turning to `COCCCN1C(=O)C2c3[nH]c4ccccc4c3C3CCC(C(C)(C)C)CC3C2C1=O` (stereo not given), the TGI with PC-3 prostate was 50.8 µM; in the assay on COLO 205 colon, > 10 µM; with KM12 colon, 55.5 µM; with CAKI-1 renal, 55 µM; in the assay on NCI-H460 lung it was 36.2 µM; with NCI-H23 lung, 82.6 µM. The figures for the TGI in the assay with HOP-62 NSCLC, in the assay with T-47D breast and in the assay on SR leukemia were 52.2 µM, > 100 µM and 80.6 µM, respectively.

With `COc1cc([C@@H]2c3cc4c(cc3[C@@H](Nc3ccc(Cl)cc3C(=O)c3ccccc3Cl)[C@H]3COC(=O)[C@H]23)OCO4)cc(OC)c1OC`, the TGI in the assay on KM12 colon is 0.289 µM; in the assay on CAKI-1 renal it was > 43.3 µM; in the assay on NCI-H23 lung, > 53.8 µM; in the assay with HOP-62 NSCLC, 16.9 µM; in the assay on T-47D breast, > 100 µM; in the assay with LOX IMVI melanoma it was > 100 µM. This molecule also returned a TGI with SR leukemia of 0.425 µM.

With `CN(C)CCNC(=O)c1cccc2c(NC(CS)C(=O)O)c3ccccc3nc12` (stereo not given), the TGI was 28.2 µM in the assay on PC-3 prostate; 16 µM in the assay with COLO 205 colon; > 100 µM with KM12 colon; 57.1 µM in the assay on CAKI-1 renal; 87.6 µM in the assay on NCI-H460 lung; 30.4 µM with NCI-H23 lung. Besides, the values for the TGI with HOP-62 NSCLC, in the assay on LOX IMVI melanoma and in the assay on SR leukemia were 41.6 µM, 21.1 µM and > 100 µM, respectively.

For the molecule `CC(=O)OCC1OC(n2c3c(c(-c4ccco4)c(C#N)c2=S)CCCC3)C(OC(C)=O)C(OC(C)=O)C1OC(C)=O` (stereo not given), the TGI with COLO 205 colon was > 31.6 µM; in the assay on KM12 colon, > 31.6 µM; in the assay on CAKI-1 renal, 87.8 µM; in the assay with NCI-H460 lung, > 31.6 µM; in the assay with NCI-H23 lung it was > 31.6 µM; with HOP-62 NSCLC, 21.8 µM. In addition, the TGI with T-47D breast, with LOX IMVI melanoma and in the assay with SR leukemia was > 31.6 µM each time.

Regarding `Cc1c(-c2coc(-c3ccc(Cl)cc3)n2)c(=O)n(-c2ccccc2)n1C`, the TGI in the assay on COLO 205 colon, in the assay on KM12 colon, with NCI-H460 lung, in the assay with NCI-H23 lung, with HOP-62 NSCLC and with LOX IMVI melanoma was > 100 µM throughout. In addition, in the assay with SR leukemia, the TGI was > 100 µM.

As to `CCN(CC)c1ccc(C(=C2C=CC(=[N+](CC)CC)C=C2)c2ccccc2)cc1`, the TGI in the assay on COLO 205 colon worked out at 0.136 µM; in the assay with KM12 colon it was 0.124 µM; in the assay with CAKI-1 renal, 0.504 µM; with NCI-H23 lung, 0.0929 µM; in the assay on HOP-62 NSCLC, 0.491 µM; in the assay with LOX IMVI melanoma it was 0.105 µM. In the assay with SR leukemia, this molecule returned a TGI of 0.0791 µM.

In the case of `CCC1(O)CN(CCOC)[C@H]2C[C@@H]1C(=O)c1[nH]c3ccccc3c12` (stereo not given in full), the TGI in the assay on PC-3 prostate, in the assay on COLO 205 colon, in the assay with KM12 colon, in the assay with CAKI-1 renal, with NCI-H460 lung and in the assay with NCI-H23 lung was > 100 µM throughout. Besides, the TGI with HOP-62 NSCLC, in the assay with LOX IMVI melanoma and in the assay with SR leukemia was > 100 µM in each case.

As to `NC(CO)c1ccccc1` (stereo not given), the TGI in the assay on KM12 colon, in the assay with CAKI-1 renal, with NCI-H460 lung, with HOP-62 NSCLC, in the assay on LOX IMVI melanoma and with SR leukemia was > 100 µM throughout.

On to `COc1cc2cc3c4c(cc(OC)c(OC)c4c2cc1OC)CCN3C(=O)OCCBr`, for which the TGI in the assay on COLO 205 colon, in the assay with KM12 colon, with CAKI-1 renal, in the assay on NCI-H460 lung, with NCI-H23 lung and in the assay on LOX IMVI melanoma was > 100 µM in each case. Further, in the assay with SR leukemia, the TGI is > 100 µM.

With `C=C1c2nc3ccccc3n2C=C(c2ccccc2)N1c1ccc(OC)cc1`, the TGI in the assay on PC-3 prostate is > 100 µM; in the assay with COLO 205 colon, > 100 µM; in the assay on KM12 colon it was 24.3 µM; in the assay on CAKI-1 renal, 64 µM; with NCI-H460 lung, 24 µM; in the assay with NCI-H23 lung, 74.4 µM. For the same molecule, the TGI with LOX IMVI melanoma and in the assay on SR leukemia was > 100 µM each time.
